Test results taken from patent US20100168192A1, “BENZISOXAZOLE DERIVATIVES AS POTASSIUM CHANNEL MODULATORS FOR THE TREATMENT OF E.G. RESPIRATORY DISEASES, EPILEPSY AND CONVULSIONS” (NeuroSearch A/S, priority 2007, published 2010).

What was measured:
BK channels = target: T1, BK channels (Homo sapiens, UniProt Q12791); test: BK channel opening activity, two-electrode voltage clamp in Xenopus laevis oocytes; assay type: cell-based
T1 construct: expressed in transfected cells; host or cells: Xenopus laevis oocytes
Method: In this example the BK channel opening activity of Compound 1 (i.e. N-(2-Benzo[d]isoxazol-3-yl-acetyl)-methanesulfonamide) is determined using BK channels heterologously expressed in Xenopus laevis oocytes.
The electrical current through the BK channel was measured using conventional two-electrode voltage clamp. BK currents were activated by repeating ramp protocols. In brief, the membrane potential was continuously changed from −120 mV to +120 mV within a 2 s period. The threshold for BK activation is approximately +30 mV under control conditions. Compounds were applied for 100 s during which the ramp protocol was repeated 10 times with 10 s intervals. In between the ramp protocols the membrane potential was clamped at −80 mV. The first three compound applications were control blanks where the current level is allowed to stabilize.
In order to evaluate the ability of the compounds to shift the BK activation curve towards lower membrane potentials, the BK current was transformed into conductance by using Ohm's law g=I/(Ememb−Erev), where g is the conductance, I is the current, Ememb is the membrane potential and Erev is the reversal potential. The extracellular solution for these experiments contained 2.5 mM K+ and the intracellular K+ concentration of an oocyte was estimated to be 100 mM. Under those conditions, Nernst equation predicts a reversal potential of Erev=−93.2 mV. The control conductance level at a membrane potential of +100 mV was calculated, and the compound effect was evaluated as the potential difference, ΔV, to the membrane potential at which the same conductance level was obtained in the presence of compound.
The concentration response curve for this potential difference was fitted to the sigmoidal logistic equation: ΔV=ΔVmax/(1+(EC50/[compound])^n), where ΔVmax represents the maximal left shift of the BK activation curve, EC50 is the concentration causing a half maximal response, and n is the slope coefficient.

T1 sequence (Q12791 whole entry): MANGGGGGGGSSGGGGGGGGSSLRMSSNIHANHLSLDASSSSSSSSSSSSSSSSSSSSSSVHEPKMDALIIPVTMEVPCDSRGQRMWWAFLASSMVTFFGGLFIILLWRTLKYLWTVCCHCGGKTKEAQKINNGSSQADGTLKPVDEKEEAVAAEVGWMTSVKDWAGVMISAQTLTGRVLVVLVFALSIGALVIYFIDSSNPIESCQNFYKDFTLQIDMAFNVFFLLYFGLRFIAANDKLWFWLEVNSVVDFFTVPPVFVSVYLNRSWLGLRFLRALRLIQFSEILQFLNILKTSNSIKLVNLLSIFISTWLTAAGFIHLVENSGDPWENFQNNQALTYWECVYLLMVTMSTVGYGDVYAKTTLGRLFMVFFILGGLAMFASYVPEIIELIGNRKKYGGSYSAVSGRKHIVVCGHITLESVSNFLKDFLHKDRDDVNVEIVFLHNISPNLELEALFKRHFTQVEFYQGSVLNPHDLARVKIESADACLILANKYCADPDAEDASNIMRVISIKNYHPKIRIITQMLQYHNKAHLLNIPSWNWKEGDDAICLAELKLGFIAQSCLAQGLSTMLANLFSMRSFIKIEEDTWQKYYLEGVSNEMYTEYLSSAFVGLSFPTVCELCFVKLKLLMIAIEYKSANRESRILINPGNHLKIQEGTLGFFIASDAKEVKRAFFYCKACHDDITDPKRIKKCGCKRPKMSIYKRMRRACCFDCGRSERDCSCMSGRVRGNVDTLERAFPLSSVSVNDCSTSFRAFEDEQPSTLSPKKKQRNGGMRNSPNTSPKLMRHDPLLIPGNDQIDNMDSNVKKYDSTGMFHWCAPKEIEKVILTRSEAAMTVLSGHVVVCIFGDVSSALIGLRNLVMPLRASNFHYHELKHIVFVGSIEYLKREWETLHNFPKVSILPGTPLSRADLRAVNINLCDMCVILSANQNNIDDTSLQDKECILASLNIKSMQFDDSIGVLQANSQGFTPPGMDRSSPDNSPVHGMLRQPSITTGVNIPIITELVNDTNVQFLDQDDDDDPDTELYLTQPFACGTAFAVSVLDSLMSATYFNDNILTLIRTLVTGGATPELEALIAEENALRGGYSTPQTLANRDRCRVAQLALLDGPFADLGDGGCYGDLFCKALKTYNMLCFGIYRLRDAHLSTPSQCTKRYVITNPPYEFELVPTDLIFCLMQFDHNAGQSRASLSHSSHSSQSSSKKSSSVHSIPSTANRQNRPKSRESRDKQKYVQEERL

melting point: 167 to 171 °C
ΔVmax, maximal left-shift of the BK activation curve (BK channels; BK channels heterologously expressed in Xenopus laevis oocytes, 0.01-31.6 μM, fitted to sigmoidal logistic equation): −15 mV
EC50 (BK channels; BK channels heterologously expressed in Xenopus laevis oocytes, 0.01-31.6 μM, ΔV at control conductance level of +100 mV, fitted to sigmoidal logistic equation, read-out: EC50 for the left-shift of the BKCa-activation curve): 0.3 µM
BK current level at depolarizing potentials (BK channels; increasing concentrations (0.01-31.6 μM), ramp protocol −120 mV to +120 mV, Xenopus laevis oocytes): marked increase in the current level
Structure (SMILES): CS(=O)(=O)NC(=O)Cc1noc2ccccc12 [Compound 1, N-(2-Benzo[d]isoxazol-3-yl-acetyl)-methanesulfonamide]
